Measured values: patent US20250305981A1, “SWITCHING PEPTIDE AND IMMUNOASSAY USING SAME” (OPTOLANE TECHNOLOGIES INC., priority 2021, published 2025)

Tests used:
L2 peptide = test: FRET test of specific interaction between H1 and L2 peptides on microplate; assay type: binding; details: TAMRA-H1 and FAM-L2, concentration of H1 peptide varied
Excerpt: (§1) Here, at the ends of the L1 and L2 peptides, a first fluorescent label, FAM (λex=488 nm, λem=532 nm) was modified, and at the ends of the H1 and H2 peptides, a second fluorescent label, TAMRA (λex=532 nm, λem=570 nm) was modified.

[1] = tested on: Fab region of rabbit anti-HRP antibodies; test: Papain treatment of immobilized antibody bound to fluorescently labeled switching peptide (FIG. 6B); assay type: binding; details: after vs before papain
Excerpt: In the case of this experiment, after immobilization of the antibodies (rabbit anti-HRP antibodies) on the microplate, binding between the antibody and the switching peptide was induced by treatment with a fluorescently labeled switching peptide, the unbound switching peptide was removed, and then the Fab region was hydrolyzed from the immobilized antibodies by adding papain, which is a protease. Referring to FIG. 6A, the fluorescence at the bottom (B) of the microplate is expected to decrease after the papain reaction because the fluorescently labeled switching peptides are bound to the Fab region of antibodies, and the fluorescence in the solution is expected to increase because the Fab region to which the switching peptide is bound is hydrolyzed and dissolved into the solution. This prediction is proven to be true from the graphs of FIG. 6B.

Anti-HRP antibody(r) = test: Fluorescence before/after antigen binding, peptide bound to immobilized antibody (Table 2); parameters: species or system rabbit; details: fluorescently labeled peptide
Anti-HBsAg antibody(g) = test: as above; parameters: species or system goat; details: for fluorescence intensity at the bottom of the plate decreased by: after treatment with antigen HBsAg; for Bottom (B) of microplate After antigen binding, fluorescence intensity / Bottom (B) of microplate Before antigen binding, fluorescence intensity / Bottom (B) of microplate Change (%) / In solution (S) After antigen binding, fluorescence intensity / In solution (S) Before antigen binding, fluorescence intensity: antigen HBsAg, fluorescently labeled peptide
Anti-hCG antibody(m) = test: as above; parameters: species or system mouse; details: fluorescently labeled peptide
Anti-CRP antibody(r) = test: as above; parameters: species or system rabbit; details: fluorescently labeled peptide
[2] = molecular target: anti-HRP antibody from a rabbit; test: One-step immunoassay with fluorescently labeled peptides, varying HRP antigen concentration (FIG. 7); assay type: binding; details: estimated; HRP antigen 0.3 to 100 μM, fluorescence in solution; read-out: Equilibrium dissociation constant
Excerpt: FIG. 7A is a schematic diagram for explaining an immunoassay method using fluorescently labeled peptide compounds of Example 1, and FIGS. 7B and 7C are graphs illustrating the fluorescence intensities in a solution and at a bottom of the microplate depending on a concentration of the antigen measured by the immunoassay method illustrated in FIG. 7A. In this experiment, an anti-HRP antibody from a rabbit immobilized on a microplate was used as the binding antibody and HRP was used as the antigen.
Referring to FIGS. 7A to 7C, as a result of performing immunoassay while varying the concentration of antigen HRP from 0.3 to 100 μM, for the four types of switching peptides (H1, H2, L1, L2), an increase in the fluorescence intensity in the solution was observed depending on the concentration of the antigen (HRP).
Equilibrium dissociation constants of the H1, H2, L1, and L2 peptides were estimated to be 1.65, 3.11, 3.29, and 1.48 μM, and the difference in the dissociation constant for each switching peptide means that each switching peptide has a different detection area for each antigen.

H2 peptide = test: FRET test of specific interaction between L1 and H2 peptides on microplate; assay type: binding; details: FAM-L1 and TAMRA-H2, concentration of L1 peptide varied
Excerpt: as §1
Referring to FIG. 4A, the interaction between the L1 and H2 peptides was observed by changing the concentration of the L1 peptide, and the FRET intensity increased with increasing the concentration of the L1 peptide.

[3] = Dynamic laser scattering (DLS) of binding antibody bound to ferrocene-labeled switching peptide (FIG. 8A); assay type: physicochemical; details: compared with antibody bound to L2 or H1 peptide
Description: FIG. 8A is a result obtained by performing dynamic laser scattering (DLS) to compare the hydrodynamic radius of the switching peptides of the present disclosure. Referring to FIG. 8A, it can be confirmed that DLS was performed using intensity measurement of scattered light under monochromatic laser light, and a hydrodynamic radius of the binding antibody bound to the L1 or H2 peptide was smaller than that of the bound antibody bound to the L2 or H1 peptide.

[4] = Diffusion coefficient (Dox) of ferrocene-labeled switching peptides in CV analysis (FIG. 8C); assay type: physicochemical; details: compared with H1 and L2 peptides
Excerpt: FIG. 8C is a graph obtained by measuring a diffusion coefficient (Dox) of the switching peptides of the present disclosure in CV analysis. […] Therefore, L1 and H2 peptides labeled with ferrocene may be optimal probes for electrochemical immunoassay.

H2 peptide, sequence (as listed by the source): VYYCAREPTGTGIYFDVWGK

Substance | decrease of fluorescence intensity at the bottom of the microplate after papain treatment [1] | increase of fluorescence intensity in the solution after papain treatment [1] | Bottom (B) of microplate After antigen binding, fluorescence intensity (Anti-HRP antibody(r)) | Bottom (B) of microplate Before antigen binding, fluorescence intensity (Anti-HRP antibody(r)) | Bottom (B) of microplate Change (%) (Anti-HRP antibody(r)) | In solution (S) After antigen binding, fluorescence intensity (Anti-HRP antibody(r)) | In solution (S) Before antigen binding, fluorescence intensity (Anti-HRP antibody(r)) | fluorescence intensity at the bottom of the plate decreased by (Anti-HBsAg antibody(g)) | Bottom (B) of microplate After antigen binding, fluorescence intensity (Anti-HBsAg antibody(g)) | Bottom (B) of microplate Before antigen binding, fluorescence intensity (Anti-HBsAg antibody(g)) | Bottom (B) of microplate Change (%) (Anti-HBsAg antibody(g)) | In solution (S) After antigen binding, fluorescence intensity (Anti-HBsAg antibody(g)) | In solution (S) Before antigen binding, fluorescence intensity (Anti-HBsAg antibody(g)) | Bottom (B) of microplate After antigen binding, fluorescence intensity (Anti-hCG antibody(m)) | Bottom (B) of microplate Before antigen binding, fluorescence intensity (Anti-hCG antibody(m)) | Bottom (B) of microplate Change (%) (Anti-hCG antibody(m)) | In solution (S) After antigen binding, fluorescence intensity (Anti-hCG antibody(m)) | In solution (S) Before antigen binding, fluorescence intensity (Anti-hCG antibody(m)) | In solution (S) Change (%) (Anti-hCG antibody(m)) | Bottom (B) of microplate After antigen binding, fluorescence intensity (Anti-CRP antibody(r)) | also measured
SYWIH WVKQR PGQGL EWIGE [H1, homology to FR2 region of the heavy chain] | 84.3% | 2,184% | 1451 | 11840 | −87.7% | 21965 | 2596 | 41.1% | 4618 | 11225 | −58.9% | 11453 | 2242 | 1940 | 5646 | −65.6% | 3921 | 1281 | +206% | 3595 | specific interaction (FRET intensity) (L2 peptide): specific interaction; Bottom (B) of microplate Before antigen binding, fluorescence intensity (Anti-CRP antibody(r)): 4912; Bottom (B) of microplate Change (%) (Anti-CRP antibody(r)): −26.8%; In solution (S) After antigen binding, fluorescence intensity (Anti-CRP antibody(r)): 5659; In solution (S) Before antigen binding, fluorescence intensity (Anti-CRP antibody(r)): 2242; In solution (S) Change (%) (Anti-CRP antibody(r)): +152%; Kd [2]: 1650 nM
TYLEW YPQKP GQSPK LLIYK [L1, homology to FR2 region of the light chain] | 84.8% | 1,032% | 1990 | 15608 | −87.3% | 12280 | 2687 | 48.7% | 5388 | 11062 | −51.3% | 20501 | 2779 | 1777 | 4630 | −61.6% | 3580 | 1248 | +187% | 3456 | specific interaction (FRET intensity) (H2 peptide): specific interaction; Bottom (B) of microplate Before antigen binding, fluorescence intensity (Anti-CRP antibody(r)): 6719; Bottom (B) of microplate Change (%) (Anti-CRP antibody(r)): −48.6%; In solution (S) After antigen binding, fluorescence intensity (Anti-CRP antibody(r)): 6505; In solution (S) Before antigen binding, fluorescence intensity (Anti-CRP antibody(r)): 741; In solution (S) Change (%) (Anti-CRP antibody(r)): +778%; Kd [2]: 3290 nM; hydrodynamic radius of the binding antibody bound to the peptide [3]: smaller; diffusion coefficient (Dox) [4]: relatively higher
VYYCA REPTG TGIYF DVWGK [H2, homology to FR3 or FR4 region of the heavy chain] | 58.7% | 2,356% | 1806 | 122230 | −85.2% | 18128 | 2272 | 63.9% | 18773 | 29367 | −36.1% | 9136 | 1784 | 23320 | 23320 | −88.5% | 8545 | 1654 | +416% | 22205 | Bottom (B) of microplate Before antigen binding, fluorescence intensity (Anti-CRP antibody(r)): 22205; Bottom (B) of microplate Change (%) (Anti-CRP antibody(r)): −39.5%; In solution (S) After antigen binding, fluorescence intensity (Anti-CRP antibody(r)): 16311; In solution (S) Before antigen binding, fluorescence intensity (Anti-CRP antibody(r)): 2099; In solution (S) Change (%) (Anti-CRP antibody(r)): +677%; Kd [2]: 3110 nM; hydrodynamic radius of the binding antibody bound to the peptide [3]: smaller; diffusion coefficient (Dox) [4]: relatively higher
VYYCF QGSHV PFTK [L2, homology to FR3 or FR4 region of the light chain] | 72.5% | 2,452% | 3208 | 12584 | −74.5% | 16135 | 2315 | 35.2% | 9856 | 28002 | −64.8% | 15359 | 2279 | 3072 | 33156 | −90.7% | 9402 | 1692 | +456% | 11236 | Bottom (B) of microplate Before antigen binding, fluorescence intensity (Anti-CRP antibody(r)): 20394; Bottom (B) of microplate Change (%) (Anti-CRP antibody(r)): −44.9%; In solution (S) After antigen binding, fluorescence intensity (Anti-CRP antibody(r)): 32187; In solution (S) Before antigen binding, fluorescence intensity (Anti-CRP antibody(r)): 3274; In solution (S) Change (%) (Anti-CRP antibody(r)): +883%; Kd [2]: 1480 nM
